Read-outs that look alike come from different tables or passages of the source. Where no end group is shown, it is not given here.
Columns and labels:
[1] = test system: Staphylococcus aureus (ATCC 25923)
Description: (§1) The third step in the CAMP-discovery process is the evaluation of the antimicrobial effectiveness of the newly identified peptides. The eight synthetic peptides were tested against a panel of Gram-positive and Gram-negative bacteria. These bacteria include Bacillus cereus, Staphylococcus aureus, Escherichia coli, and Pseudomonas aeruginosa. […] When incubated with live metabolically-active cells, the non-fluorescent blue dye resazurin is converted to the highly fluorescent pink resorufin, as a result of reduction by the cells. While bacteria can reduce resazurin via multiple metabolic processes, the rate of conversion and the corresponding increase in fluorescence are directly proportional to the number of living cells in the sample [19–21, 25]. Thus, fluorometric detection of the rate of resazurin conversion to resorufin at 530ex/590em allows for quantification of bacterial survival following exposure to antibacterial compounds, such as CAMPs.
(§2) Escherichia coli (ATCC 25922), Bacillus cereus (ATCC 11778), Pseudomonas aeruginosa (ATCC 9027), and Staphylococcus aureus (ATCC 25923) used in these studies were purchased from the American Type Culture Collection (Manassas, VA). Bacteria were grown following ATCC recommended protocols for each strain and frozen aliquots were prepared in 20% glycerol and stored at -80°C for further use.
(§3) Frozen enumerated bacterial aliquots were thawed on ice and mixed. For each strain, bacteria are diluted to 2 × 10^6 CFU/mL in sterile 10 mM sodium phosphate (pH 7.4) and added in 50 µL aliquots to the wells of a 96-well black microtiter plate (Greiner Bio-One 655201) containing 50 µL volumes of serially diluted CAMP, dissolved in the same phosphate buffer. Control wells contain bacteria with no peptide. The microtiter plate was incubated for 3 hours at 30°C (B. cereus) or 37°C for other strains. After three hours, 100 µL of PBS solution with dissolved resazurin and MHB was added to each well. The amount of resazurin and MHB that was added is bacterial strain dependent, with the final resazurin (µM)/ MHB (wt/vol) concentrations being 100 µM/ 0.2% (wt/vol) for E. coli, 12.5 µM/ 0.05% (wt/vol) for B. cereus, 25 µM/ 2.2% (wt/vol) for P. aerugoinsa, and 50 µM/ 2.2% (wt/vol) for S. aureus. The metabolic conversion of resazurin to resorufin is bacterial strain dependent and requires concentrations optimized for each species to achieve a high-throughput assessment. Following addition of resazurin/MHB buffer, the plate was immediately placed in either a SpectraMax Gemini EM plate-reading fluorimeter (E. coli and B. cereus) or a TeCan Safire 2 fluorimeter (S. aureus and P. aeruginosa) for incubation overnight at either 30°C (B. cereus) or 37°C (other strains) while monitoring fluorescence for each well.
(§4) Fluorescence data was collected from each well during the monitoring period using equations compiled by microplate data software (SoftMax Pro 4.5 or Magellen 6). Onset time of half maximal fluorescence (T0.5) was used for quantifying bacterial concentrations. Standard curves were generated in preliminary experiments using serially diluted bacterial suspensions (~10^6 CFU/mL- 10^3 CFU/mL) without CAMPs. […] Correlating bacterial CFU values for wells containing peptide with control wells containing no CAMPs it is possible to determine bacterial survival for wells containing CAMPs.

[2] = test system: Pseudomonas aeruginosa (ATCC 9027)
Description: as §1, §2, §3, §4

[3] = test system: Escherichia coli (ATCC 25922)
Description: as §1, §2, §3, §4

[4] = test system: Bacillus cereus (ATCC 11778)
Description: as §1, §2, §3, §4

Molecule | EC50 ([1]; ATCC 25923, 3 h, pH 7.4) [nM] | EC50 ([2]; ATCC 9027, 3 h, pH 7.4) [nM] | EC50 ([3]; ATCC 25922, 3 h, pH 7.4) [nM] | EC50 ([4]; ATCC 11778, 3 h, pH 7.4) [nM] | EC50 ([1]; read-out: S. aureus EC50, S. aureus ATCC 25923, 2 × 10^6 CFU/mL stock mixed 1:1 with peptide in 10 mM sodium phosphate pH 7.4, 3 h at 37°C, resazurin fluorescence read-out (T0.5), triplicate, variable-slope sigmoidal fit) [nM] | EC50 ([2]; read-out: P. aeruginosa EC50, P. aeruginosa ATCC 9027, 2 × 10^6 CFU/mL stock mixed 1:1 with peptide in 10 mM sodium phosphate pH 7.4, 3 h at 37°C, resazurin fluorescence read-out (T0.5), triplicate, variable-slope sigmoidal fit) [nM] | EC50 ([3]; read-out: E. coli EC50, E. coli ATCC 25922, 2 × 10^6 CFU/mL stock mixed 1:1 with peptide in 10 mM sodium phosphate pH 7.4, 3 h at 37°C, resazurin fluorescence read-out (T0.5), triplicate, variable-slope sigmoidal fit) [nM] | EC50 ([4]; read-out: B. cereus EC50, B. cereus ATCC 11778, 2 × 10^6 CFU/mL stock mixed 1:1 with peptide in 10 mM sodium phosphate pH 7.4, 3 h at 30°C, resazurin fluorescence read-out (T0.5), triplicate, variable-slope sigmoidal fit) [nM]
CC[C@H](C)[C@H](NC(=O)[C@H](CCCCN)NC(=O)[C@H](CCC(=O)O)NC(=O)[C@H](CCCCN)NC(=O)[C@H](CO)NC(=O)[C@H](CCCCN)NC(=O)[C@H](CCCNC(=N)N)NC(=O)[C@H](Cc1ccccc1)NC(=O)[C@H](Cc1ccccc1)NC(=O)[C@H](CC(=O)O)NC(=O)CNC(=O)[C@H](CC(C)C)NC(=O)[C@@H](N)CC(C)C)C(=O)NCC(=O)N[C@@H](CCCCN)C(=O)N[C@@H](CCC(=O)O)C(=O)N[C@@H](Cc1ccccc1)C(=O)N[C@@H](CCCCN)C(=O)N[C@@H](CCCNC(=N)N)C(=O)N[C@H](C(=O)N[C@H](C(=O)N[C@@H](CCC(N)=O)C(=O)N[C@@H](CCCNC(=N)N)C(=O)N[C@H](C(=O)N[C@@H](CCCCN)C(=O)N[C@@H](CC(=O)O)C(=O)N[C@@H](Cc1ccccc1)C(=O)N[C@@H](CC(C)C)C(=O)N[C@@H](CCCNC(=N)N)C(=O)N[C@@H](CC(N)=O)C(=O)N[C@@H](CC(C)C)C(=O)N[C@H](C(=O)N1CCC[C@H]1C(=O)N[C@@H](CCCNC(=N)N)C(=O)N[C@H](C(=O)N[C@@H](CCC(=O)O)C(=O)N[C@@H](CO)C(=O)O)[C@@H](C)O)C(C)C)[C@@H](C)CC)C(C)C)[C@@H](C)CC [LL-37, reference compound] | – | – | – | – | 552 | 525 | 8.21 | 28.7
KKTSMKIIPFTRL [FGG401–413] | 31800 | 11100 | 245 | 18700 | – | – | – | –
PPGASPRKKPRKQ [ASAP130LP] | 101000 | – | – | – | – | – | – | –
VERIPLVRFKSIKKQLHERGDL [NOTS17–38] | 198000 | – | – | – | – | – | – | –

More lines, in order of falling EC50 ([1]; ATCC 25923, 3 h, pH 7.4), values ahead:

EC50 ([1]; ATCC 25923, 3 h, pH 7.4) [nM] | EC50 ([2]; ATCC 9027, 3 h, pH 7.4) [nM] | EC50 ([3]; ATCC 25922, 3 h, pH 7.4) [nM] | EC50 ([4]; ATCC 11778, 3 h, pH 7.4) [nM] | Molecule | EC50 ([1]; read-out: S. aureus EC50, S. aureus ATCC 25923, 2 × 10^6 CFU/mL stock mixed 1:1 with peptide in 10 mM sodium phosphate pH 7.4, 3 h at 37°C, resazurin fluorescence read-out (T0.5), triplicate, variable-slope sigmoidal fit) [nM] | EC50 ([2]; read-out: P. aeruginosa EC50, P. aeruginosa ATCC 9027, 2 × 10^6 CFU/mL stock mixed 1:1 with peptide in 10 mM sodium phosphate pH 7.4, 3 h at 37°C, resazurin fluorescence read-out (T0.5), triplicate, variable-slope sigmoidal fit) [nM] | EC50 ([3]; read-out: E. coli EC50, E. coli ATCC 25922, 2 × 10^6 CFU/mL stock mixed 1:1 with peptide in 10 mM sodium phosphate pH 7.4, 3 h at 37°C, resazurin fluorescence read-out (T0.5), triplicate, variable-slope sigmoidal fit) [nM] | EC50 ([4]; read-out: B. cereus EC50, B. cereus ATCC 11778, 2 × 10^6 CFU/mL stock mixed 1:1 with peptide in 10 mM sodium phosphate pH 7.4, 3 h at 30°C, resazurin fluorescence read-out (T0.5), triplicate, variable-slope sigmoidal fit) [nM]
9660 | 1410 | 192 | 245 | FSTKTRNWFSEHFKKVKEKLKDTFA [APOC1_64–88] | – | – | – | –
7080 | 948 | 151 | 210 | KTRNWFSEHFKKVKEKLKDTFA [APOC1_67–88] | – | – | – | –
2840 | 7020 | 332 | 9350 | YSLKKTSMKIIPFTRL [FGG398–413] | – | – | – | –

From PMC4324634, “Bioprospecting the American Alligator (Alligator mississippiensis) Host Defense Peptidome” (PLoS ONE, 2015)
